Assay results taken from patent publication US8546340B2, “Soothing pharmaceutical or cosmetic composition comprising a peptide that activates HMG-CoA reductase” (ISP Investments Inc., priority 2008, dated 2013).
No end group written: not given here.

Key:
interleukin-1 alpha = test: Ex vivo IL-1 alpha secretion by human skin biopsies (ELISA); format: cell-based; settings: peptide 0.5 ppm 24 h, vs controls untreated by the peptide
Procedure: Protocol: 5 mm-diameter biopsies of human skin are maintained in culture at the air-liquid interface in the presence of standard culture medium. The samples are treated with a 1% dilution of a solution at 50 ppm of peptide SEQ ID No. 5 for 24 hours, and then irradiated by UVB radiation (200 mJ/cm^2) and put back in culture for 24 hours, or subjected to contact with SDS at 2.5% for 24 hours in the presence of the same concentration of peptide SEQ ID No. 5. Controls untreated by the peptide are carried out under the same conditions. At the end of the experiment, the quantity of interleukin-1 alpha salted out in the culture medium is assayed by the ELISA technique.

HMG-CoA reductase = test: Expression of HMG-CoA reductase in normal human keratinocytes (immunofluorescence); format: cell-based; settings: peptide 0.5 ppm (1% of 50 ppm stock), 24 or 48 hours
Procedure: Protocol: Normal human keratinocytes in culture are treated with a 1% stock solution at 50 ppm of peptide SEQ ID No. 5 for 24 or 48 hours (the medium in the presence of the active ingredient is changed every 24 hours). The cells are then washed and fixed in cold methanol for 4 minutes at 4° C. The cells are incubated in the presence of a polyclonal rabbit antibody specific for HMG-CoA reductase (Millipore, Upstate), and then a secondary antibody coupled with a fluorescent dye. The cells are then examined by epifluorescence microscope (Nikon Eclipse E600 microscope).

- expression of HMG-CoA reductase (cytoplasmic fluorescence, microscopic observation) (HMG-CoA reductase): more intense cytoplasmic fluorescence
Substance: Ala-Gly-Glu-Leu-Ser-NH2 (AGELS-NH2) [Peptide SEQ ID No. 5]
- reduction of quantity of IL-1 alpha salted out in culture medium (interleukin-1 alpha; SDS 2.5% for 24 hours with peptide): 58%
- reduction of quantity of IL-1 alpha salted out in culture medium (interleukin-1 alpha; UVB 200 mJ/cm^2, then 24 h culture): 40%
